Reference: publication PMC6940745 (International Journal of Molecular Sciences, 2019)
pEC50: −log10 of the molar value. Where a SMILES comes first, the peptide text is derived from it. [ ]: non-standard residue; d: D form. The star is where a group is joined. Bz = O=C(c1ccccc1)*; NPr2 = CCCN(CCC)*

Experiments:
[1] = molecular target: T1, MT1R (Homo sapiens, UniProt P48039); experiment: MT1R activation, GTPγS scintillation proximity assay on CHO-K1 membranes; assay type: biochemical; conditions: eight concentrations, 0.01 to 100,000 nM
T1 construct: host or cells: CHO-K1 (membrane preparations)
Description: (§1) Melatonin (MT1R and MT2R) and opioid receptor (OP1R, OP2R, and OP3R, corresponding to human delta, kappa, and mu opioid receptors) activation assays were performed by means of GTPγS scintillation proximity assays. For agonist testing, membrane preparations from CHO-K1 cells expressing each receptor (EuroscreenFast, Gosselies, Belgium) were mixed with guanosine diphosphate (GDP) (v/v). In parallel, GTPγ[^35S] (PerkinElmer, NEG030X, 0.1 nM final assay concentration) was mixed with PVT-WGA beads (Perkin Elmer, RPNQ001, 0.5 mg/well final assay density) (v/v) just before starting the reaction. The following reagents were then successively added in the wells of an Optiplate (Perkin Elmer): A total of 50 µL of test or reference ligand diluted in assay buffer, 10 µL of assay buffer (20 mM HEPES pH 7.4; 100–200 mM NaCl, 10 µg/mL saponin, MgCl2 at optimized concentration for the specific receptor, 0%–0.1% BSA), 20 µL of the membranes: GDP mix, and 20 µL of the GTPγ[^35S]: Beads mix. The plates were covered with a top seal, mixed on an orbital shaker for 2 min, and then incubated for 1 h at room temperature. Then the plates were centrifuged for 10 min at 2000 rpm, incubated at room temperature for 1 h, and counted for 1 min/well with a PerkinElmer TopCount™ reader.

[2] = molecular target: T2, MT2R (Homo sapiens, UniProt P49286); experiment: MT2R activation, GTPγS scintillation proximity assay on CHO-K1 membranes; assay type: biochemical; conditions: eight concentrations, 0.01 to 100,000 nM
T2 construct: host or cells: CHO-K1 (membrane preparations)
Description: as §1

[3] = molecular target: human MCH1R (Homo sapiens, UniProt Q99705); experiment: MCH1R activation, Aequorin assay; assay type: cell-based; conditions: eight concentrations, 0.01 to 100,000 nM
Description: (§2) Melanin-concentrating hormone receptor (MCHR), endothelin-1 receptor (ETBR), and serotonin-receptor (5-HT2AR) assays were performed by means of Aequorin assays. Recombinant cells co-expressing human MCH1R, MCH2R, ETBR, or 5-HT2AR and mitochondrial apoaequorin (MCH1R, MCH2R and 5-HT2AR cells also co-express recombinant Gα16 protein) (EuroscreenFast, Gosselies, Belgium), grown 18 h prior to the test in media without antibiotics, were detached by gentle flushing with PBS-EDTA (5 mM EDTA), recovered by centrifugation, and resuspended in assay buffer (DMEM/HAM’s F12 with HEPES + 0.1% BSA protease free). Cells were incubated under agitation at room temperature for at least 4 h with Coelenterazine h (Promega, X300X, 0.5 µM final concentration). Dose response curves with the reference compounds were performed before testing the compounds. For agonist testing, 50 µL of cell suspension was injected on 50 µL of test compound or reference agonist diluted in assay buffer and plated in a 96-well plate. The resulting emission of light was recorded using the Hamamatsu Functional Drug Screening System 6000 (FDSS 6000). […] Agonist activity of test compound was expressed as a percentage of the activity of the reference agonist at its EC100 concentration.

[4] = molecular target: human ETBR (Homo sapiens, UniProt P24530); experiment: ETBR activation, Aequorin assay; assay type: cell-based; conditions: eight concentrations, 0.01 to 100,000 nM
Description: as §2

[5] = tested on: Nrf2 (phospho S40); experiment: Nrf2 serine 40 phosphorylation in skin explants after UVA-irradiation; assay type: cell-based, human; conditions: p < 0.05 vs UVA-irradiated vehicle control
Description: On an abdominoplasty coming from a person with Fitzpatrick phototype II, skin explants of an average diameter of 11 mm were prepared after obtaining written informed consent. The explants were kept in culture medium at 37 °C in a humid, 5% CO2 atmosphere. The peptide was applied topically and spread using a small spatula on day 0 (D0), D1, D2, and D3. […] On day 3, explants were irradiated with UVA (13.5 J/cm^2 equal to 3 minimal erythemal doses (MED)) using a Vilbert Lourmat solar simulator RMX 3W. For the UV irradiation, the explants were transferred into 1 mL of HBSS (Hank’s buffered salt solution) medium. The non-irradiated batches were kept in 1 mL of HBSS medium. After the UV exposure, all the explants were put in fresh Bio-EC’s explant medium (BEM medium). The products were applied on the explants 3 h before and just after UVA irradiation. Twenty-four hours after UVA irradiation, the tissues were harvested and processed for histology. After fixation for 24 h in buffered formalin, the samples were dehydrated and impregnated in paraffin using a Leica TP 1010 dehydration automat. The samples were embedded using a Leica EG 1160 embedding station. Sections 5 µm thick were made using a Leica RM 2125 Minot-type microtome, and the sections were mounted on Superfrost® histological glass slides (Thermo Fisher Scientific, Waltham, MA, USA). […]

T2 sequence (P49286 whole entry): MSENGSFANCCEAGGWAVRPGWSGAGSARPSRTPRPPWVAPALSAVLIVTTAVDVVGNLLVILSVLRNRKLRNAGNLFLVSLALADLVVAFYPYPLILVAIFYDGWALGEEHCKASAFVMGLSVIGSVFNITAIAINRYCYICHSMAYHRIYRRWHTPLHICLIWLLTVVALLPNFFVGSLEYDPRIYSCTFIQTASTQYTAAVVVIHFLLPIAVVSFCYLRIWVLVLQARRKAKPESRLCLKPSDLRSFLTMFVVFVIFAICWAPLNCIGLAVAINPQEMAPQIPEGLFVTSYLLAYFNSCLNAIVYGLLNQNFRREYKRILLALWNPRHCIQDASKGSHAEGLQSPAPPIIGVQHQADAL
Sequence of human ETBR (P24530 27-442): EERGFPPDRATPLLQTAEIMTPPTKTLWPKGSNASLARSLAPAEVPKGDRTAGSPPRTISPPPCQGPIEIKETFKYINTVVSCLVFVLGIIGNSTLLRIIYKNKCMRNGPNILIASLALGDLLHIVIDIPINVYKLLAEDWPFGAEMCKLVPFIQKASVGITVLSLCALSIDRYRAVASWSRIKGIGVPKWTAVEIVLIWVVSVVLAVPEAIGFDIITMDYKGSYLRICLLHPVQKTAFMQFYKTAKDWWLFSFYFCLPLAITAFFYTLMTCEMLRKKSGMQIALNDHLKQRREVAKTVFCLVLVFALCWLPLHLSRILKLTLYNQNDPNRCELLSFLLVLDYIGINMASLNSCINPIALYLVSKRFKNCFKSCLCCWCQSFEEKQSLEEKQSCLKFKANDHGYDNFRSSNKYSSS
T1 sequence (P48039 whole entry): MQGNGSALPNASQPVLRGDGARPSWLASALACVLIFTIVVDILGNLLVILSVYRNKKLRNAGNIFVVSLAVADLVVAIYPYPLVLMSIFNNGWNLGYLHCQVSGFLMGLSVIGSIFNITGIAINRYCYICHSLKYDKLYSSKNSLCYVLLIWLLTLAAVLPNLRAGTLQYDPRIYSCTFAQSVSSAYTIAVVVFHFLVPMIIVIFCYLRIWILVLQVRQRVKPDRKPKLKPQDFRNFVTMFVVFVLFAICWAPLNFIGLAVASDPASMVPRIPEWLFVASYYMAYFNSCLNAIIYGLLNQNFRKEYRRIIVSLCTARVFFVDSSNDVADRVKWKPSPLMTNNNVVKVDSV
Sequence of human MCH1R (Q99705 whole entry): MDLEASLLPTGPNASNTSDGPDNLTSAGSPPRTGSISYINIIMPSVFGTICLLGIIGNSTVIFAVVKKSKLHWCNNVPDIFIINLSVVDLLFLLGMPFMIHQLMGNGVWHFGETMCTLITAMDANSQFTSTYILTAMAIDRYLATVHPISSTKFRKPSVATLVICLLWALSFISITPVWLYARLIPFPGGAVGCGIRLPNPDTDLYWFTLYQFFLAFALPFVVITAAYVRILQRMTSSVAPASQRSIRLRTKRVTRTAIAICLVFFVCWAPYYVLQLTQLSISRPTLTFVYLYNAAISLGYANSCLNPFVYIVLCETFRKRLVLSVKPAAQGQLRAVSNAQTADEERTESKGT

## CCCN(CCC)C(=O)[C@@H](Cc1c[nH]c2ccccc12)NC(=O)[C@H](CCCNC(=N)N)NC(=O)[C@@H](Cc1ccccc1)NC(=O)[C@H](Cc1c[nH]cn1)NC(=O)CNC(=O)c1ccccc1 [Peptide 4] (Bz-GH[dF]R[dW]-NPr2)
[1]
  pEC50: < 4.00
[2]
  pEC50: < 4.00
[3]
  pEC50: < 4.00
[4]
  pEC50: < 4.00
[5]
  Induction of Nrf2 phosphorylation on serine 40: up to 161%
